Consider four compounds from the supplement of paper PMC8149375.

Structures are written as SMILES.

What all share (settings): treatment: drug alone; 5 days
For assay [1], the system named is TK-10. In words: minimum viability across doses, drug alone, relative to DMSO (fraction); higher = less growth inhibition. On the procedure:
(§1)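 Primary HTS: 8 RCC cell lines treated with 8 doses (up to 10 uM) of each library drug alone for 5 days; viability read by CellTiter-Glo and normalised to DMSO. GI50 was fitted with XLfit (4-parameter), AUC is the area under the dose-response curve, and minimum viability is the lowest fraction of DMSO viability across doses.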

Assay [2] deals with 786-O. Described as above. On the procedure: as §1
In assay [3] the test system is CAKI-1. Described as above. On the procedure:
as §1

In assay [4] the test system is 769-P. Described as above. On the procedure: as §1
Assay [5] has as its system ACHN. Described as above. On the procedure: as §1
In assay [6] the test system is SN12C. The assay is described as above. On the procedure:
as §1

The subject of assay [7] is A498. The assay is described as above. On the procedure: as §1
Assay [8] concerns UO-31. Described as above. On the procedure: as §1
For assay [9], the system named is TK-10. In words: GI50, drug alone; higher = less potent. On the procedure:
as §1

Assay [10] concerns 786-O. In words: GI50, drug alone; higher = less potent. On the procedure:
as §1

In assay [11] the test system is CAKI-1. Kind of assay: GI50, drug alone; higher = less potent. On the procedure: as §1
For assay [12], the system named is 769-P. In words: GI50, drug alone; higher = less potent. On the procedure:
as §1

For assay [13], the system named is ACHN. Kind of assay: GI50, drug alone; higher = less potent. On the procedure: as §1
For assay [14], the system named is SN12C. Kind of assay: GI50, drug alone; higher = less potent. On the procedure:
as §1

The subject of assay [15] is A498. Kind of assay: GI50, drug alone; higher = less potent. On the procedure: as §1
Assay [16] has as its system UO-31. In words: GI50, drug alone; higher = less potent. On the procedure:
as §1

For assay [17], the system named is TK-10. Kind of assay: AUC of dose-response viability curve, drug alone (arbitrary (AUC of normalised viability)); higher = less growth inhibition. On the procedure:
as §1

In assay [18] the test system is 786-O. The description is as above. On the procedure: as §1
The subject of assay [19] is CAKI-1. Described as above. On the procedure:
as §1

Assay [20] deals with 769-P. The assay is described as above. On the procedure:
as §1

The subject of assay [21] is ACHN. The assay is described as above. On the procedure:
as §1

For assay [22], the system named is SN12C. The description is as above. On the procedure: as §1
Assay [23] deals with A498. Described as above. On the procedure: as §1
Assay [24] concerns UO-31. The assay is described as above. On the procedure:
as §1

Turning to `CS(=O)(=O)O.Cc1ccc(NC(=O)c2ccc(CN3CCN(C)CC3)cc2)cc1Nc1nccc(-c2cccnc2)n1` [Imatinib Mesylate], the “minimum viability across doses” value in the assay with TK-10 [1] worked out at 0.861; with 786-O [2], 0.399; in the assay with CAKI-1 [3], 0.965; in the assay on 769-P [4], 0.898; in the assay with ACHN [5], 0.855; in the assay with SN12C [6], 0.775. Also, the entries for the “minimum viability across doses” value in the assay with A498 [7] and in the assay with UO-31 [8] were 0.973 and 1.1, respectively. Besides, the “GI50, drug alone” value with TK-10 [9] is more than 10 µM; in the assay on 786-O [10], 8.42 µM; with CAKI-1 [11], more than 10 µM; in the assay on 769-P [12], more than 10 µM; with ACHN [13], more than 10 µM; with SN12C [14] it was more than 10 µM. Further, the “GI50, drug alone” value in the assay with A498 [15] and in the assay on UO-31 [16] was more than 10 µM in each case. The “AUC of dose-response viability curve” value in the assay with TK-10 [17] is 3.25; in the assay on 786-O [18], 2.83; in the assay with CAKI-1 [19], 3.61; with 769-P [20] it was 3.45; with ACHN [21] it was 3.71; in the assay on SN12C [22], 3.55. Further, the entries for the “AUC of dose-response viability curve” value with A498 [23] and in the assay with UO-31 [24] were 3.89 and 5.21, respectively.

`O=C1Nc2ccccc2/C1=C1/Nc2ccccc2C1=O` [Indirubin]: the “minimum viability across doses” value with TK-10 [1] came out at 0.635; in the assay on 786-O [2] it was 0.529; with CAKI-1 [3] it was 0.762; in the assay on 769-P [4], 0.811; in the assay on ACHN [5], 0.778; with SN12C [6], 0.703. Further, the results for the “minimum viability across doses” value in the assay on A498 [7] and in the assay on UO-31 [8] were 0.827 and 0.655, respectively. In addition, the “GI50, drug alone” value with TK-10 [9], in the assay with 786-O [10], in the assay with CAKI-1 [11], in the assay on 769-P [12], in the assay with ACHN [13] and in the assay on SN12C [14] was more than 10 µM each time. For the same compound, the “GI50, drug alone” value in the assay on A498 [15] and with UO-31 [16] was more than 10 µM each time. The “AUC of dose-response viability curve” value with TK-10 [17] was 2.6; with 786-O [18] it was 2.32; with CAKI-1 [19], 2.94; in the assay on 769-P [20] it was 3.19; in the assay with ACHN [21], 2.9; in the assay on SN12C [22], 2.66. The “AUC of dose-response viability curve” value turned out to be 3.26 in the assay with A498 [23] and 2.68 in the assay on UO-31 [24].

On to `CCCNC(=O)Nc1ccc(Oc2ncnc3cc(OC)c(OC)cc23)cc1Cl` [KRN 633], for which the “minimum viability across doses” value was determined as 0.664 with TK-10 [1]; 0.366 with 786-O [2]; 0.817 in the assay on CAKI-1 [3]; 0.861 with 769-P [4]; 0.742 in the assay on ACHN [5]; 0.718 in the assay with SN12C [6]. In addition, the “minimum viability across doses” value with A498 [7] stood at 0.974; in the assay on UO-31 [8], 0.734. In addition, the “GI50, drug alone” value was more than 10 µM in the assay with TK-10 [9]; 3.93 µM in the assay on 786-O [10]; more than 10 µM in the assay with CAKI-1 [11]; more than 10 µM in the assay on 769-P [12]; more than 10 µM with ACHN [13]; more than 10 µM in the assay on SN12C [14]. The “GI50, drug alone” value in the assay with A498 [15] and in the assay on UO-31 [16] was more than 10 µM in each case. For the same compound, the “AUC of dose-response viability curve” value with TK-10 [17] worked out at 2.8; in the assay with 786-O [18], 2.11; in the assay on CAKI-1 [19] it was 3.24; with 769-P [20] it was 3.34; with ACHN [21], 2.92; with SN12C [22], 2.93. Besides, the figures for the “AUC of dose-response viability curve” value in the assay with A498 [23] and in the assay on UO-31 [24] were 4.07 and 3.91, respectively.

As to `O=C(c1ccc(/C=C/c2n[nH]c3ccccc23)cc1)N1CCNCC1` [KW 2449], the “minimum viability across doses” value stood at 0.645 in the assay with TK-10 [1]; 0.814 in the assay with 786-O [2]; 0.268 in the assay on CAKI-1 [3]; 0.549 in the assay with 769-P [4]; 0.215 in the assay with ACHN [5]; 0.241 in the assay on SN12C [6]. In addition, the figures for the “minimum viability across doses” value in the assay with A498 [7] and in the assay on UO-31 [8] were 0.828 and 0.86, respectively. Moreover, the “GI50, drug alone” value was more than 10 µM with TK-10 [9]; more than 10 µM in the assay on 786-O [10]; 3.54 µM in the assay with CAKI-1 [11]; more than 10 µM in the assay on 769-P [12]; 2.12 µM in the assay on ACHN [13]; 4.76 µM in the assay with SN12C [14]. For the same compound, the “GI50, drug alone” value in the assay on A498 [15] and in the assay on UO-31 [16] was more than 10 µM throughout. The “AUC of dose-response viability curve” value in the assay with TK-10 [17] is 3.23; with 786-O [18] it was 3.77; in the assay with CAKI-1 [19], 2.93; with 769-P [20], 3.12; in the assay on ACHN [21], 2.67; in the assay on SN12C [22], 3.03. In addition, the “AUC of dose-response viability curve” value in the assay with A498 [23] was determined as 3.72; in the assay with UO-31 [24], 4.33.
